Source: patent US4550186A, “Binuclear copper (II) carboxylates formed from amine-carboxyboranes” (Duke University, priority 1983, dated 1985)

Target: T1, transfer ribonucleic acid polymerase (Mus musculus, UniProt B2RXC6+P59470)
T1 sequence (B2RXC6 1-1390): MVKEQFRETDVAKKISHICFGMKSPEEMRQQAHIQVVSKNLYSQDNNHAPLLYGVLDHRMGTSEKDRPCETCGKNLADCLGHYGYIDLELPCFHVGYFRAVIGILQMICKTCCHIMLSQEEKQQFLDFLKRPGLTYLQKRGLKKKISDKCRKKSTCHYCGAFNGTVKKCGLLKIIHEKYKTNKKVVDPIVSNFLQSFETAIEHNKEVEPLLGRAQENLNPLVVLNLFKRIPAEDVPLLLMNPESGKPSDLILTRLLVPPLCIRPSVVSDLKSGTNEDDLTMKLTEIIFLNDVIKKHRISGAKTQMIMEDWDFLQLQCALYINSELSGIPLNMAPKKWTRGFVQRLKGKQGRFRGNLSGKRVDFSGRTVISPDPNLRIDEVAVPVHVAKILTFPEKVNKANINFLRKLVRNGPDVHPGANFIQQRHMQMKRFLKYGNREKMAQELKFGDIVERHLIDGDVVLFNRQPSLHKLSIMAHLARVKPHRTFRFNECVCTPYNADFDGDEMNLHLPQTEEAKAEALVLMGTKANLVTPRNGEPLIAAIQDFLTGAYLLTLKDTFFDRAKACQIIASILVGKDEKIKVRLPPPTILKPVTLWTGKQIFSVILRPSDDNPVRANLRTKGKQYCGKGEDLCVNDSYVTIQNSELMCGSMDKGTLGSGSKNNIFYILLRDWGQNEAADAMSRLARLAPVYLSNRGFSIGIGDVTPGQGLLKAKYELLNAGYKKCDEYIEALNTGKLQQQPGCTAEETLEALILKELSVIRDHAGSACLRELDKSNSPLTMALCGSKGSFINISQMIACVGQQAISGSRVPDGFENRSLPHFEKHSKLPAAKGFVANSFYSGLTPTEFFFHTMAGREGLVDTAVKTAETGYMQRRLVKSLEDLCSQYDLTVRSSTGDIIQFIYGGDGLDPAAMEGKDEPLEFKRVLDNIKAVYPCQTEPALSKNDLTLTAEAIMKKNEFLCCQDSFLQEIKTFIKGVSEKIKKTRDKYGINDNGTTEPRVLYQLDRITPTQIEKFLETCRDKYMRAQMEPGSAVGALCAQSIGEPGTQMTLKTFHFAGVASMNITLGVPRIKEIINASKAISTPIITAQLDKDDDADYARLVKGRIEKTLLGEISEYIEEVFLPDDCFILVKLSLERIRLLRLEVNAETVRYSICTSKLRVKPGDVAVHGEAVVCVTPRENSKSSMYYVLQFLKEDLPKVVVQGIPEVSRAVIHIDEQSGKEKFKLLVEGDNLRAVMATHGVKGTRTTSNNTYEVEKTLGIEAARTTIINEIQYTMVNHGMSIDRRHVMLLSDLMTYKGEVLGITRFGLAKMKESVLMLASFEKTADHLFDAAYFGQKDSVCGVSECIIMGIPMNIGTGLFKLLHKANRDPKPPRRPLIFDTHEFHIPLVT
T1 sequence (P59470 1-1133): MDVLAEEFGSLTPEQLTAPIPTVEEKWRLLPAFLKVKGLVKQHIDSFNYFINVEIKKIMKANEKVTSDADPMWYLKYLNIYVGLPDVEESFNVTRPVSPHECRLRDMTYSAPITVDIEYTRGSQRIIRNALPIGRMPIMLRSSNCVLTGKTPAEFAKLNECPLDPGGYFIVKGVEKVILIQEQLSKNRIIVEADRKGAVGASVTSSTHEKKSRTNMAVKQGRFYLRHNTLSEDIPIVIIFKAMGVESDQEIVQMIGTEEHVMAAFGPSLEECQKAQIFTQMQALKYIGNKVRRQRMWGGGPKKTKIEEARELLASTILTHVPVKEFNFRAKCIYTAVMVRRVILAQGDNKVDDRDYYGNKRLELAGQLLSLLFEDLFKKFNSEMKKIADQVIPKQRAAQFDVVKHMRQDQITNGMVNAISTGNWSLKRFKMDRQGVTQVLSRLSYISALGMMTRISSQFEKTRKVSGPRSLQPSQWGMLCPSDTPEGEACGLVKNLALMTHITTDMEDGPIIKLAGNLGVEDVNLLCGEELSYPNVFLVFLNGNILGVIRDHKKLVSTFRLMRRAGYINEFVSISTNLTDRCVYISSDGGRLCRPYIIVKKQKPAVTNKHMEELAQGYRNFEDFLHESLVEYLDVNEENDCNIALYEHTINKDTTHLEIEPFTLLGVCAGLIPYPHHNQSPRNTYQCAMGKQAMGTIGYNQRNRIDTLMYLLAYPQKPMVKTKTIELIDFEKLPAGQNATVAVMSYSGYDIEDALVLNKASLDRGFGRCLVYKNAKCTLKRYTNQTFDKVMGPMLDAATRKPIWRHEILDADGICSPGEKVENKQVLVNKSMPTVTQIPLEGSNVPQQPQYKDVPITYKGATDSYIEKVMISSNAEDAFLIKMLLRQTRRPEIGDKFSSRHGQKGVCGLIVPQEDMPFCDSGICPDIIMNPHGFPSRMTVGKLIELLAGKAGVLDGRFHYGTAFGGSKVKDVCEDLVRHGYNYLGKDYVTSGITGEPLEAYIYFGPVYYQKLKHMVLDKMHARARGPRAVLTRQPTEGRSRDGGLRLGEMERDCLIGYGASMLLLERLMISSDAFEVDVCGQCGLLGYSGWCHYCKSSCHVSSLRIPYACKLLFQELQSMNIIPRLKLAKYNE
Test: In vitro transfer ribonucleic acid polymerase activity
Format: biochemical
Details: read-out: ID50, Transfer ribonucleic acid polymerase activity
Method: CF1 male mice (~30 g) were implanted with 2×10^6 Ehrlich ascites tumor cells, intraperitoneally on Day 0. Compound I was suspended by homogenation in 0.05% polysorbate.80-water and administered intraperitoneally at 10 and 20 mg/kg for 9 days to determine its effectiveness for inhibition of tumor growth. Mice were sacrificed on Day 10, and the ascites fluid was collected from the peritoneal cavity. The volume and ascrit (packed cell volume) were determined for each animal and the percent inhibition of tumor growth was calculated. For the metabolic studies, mice were treated on Days 8 and 9 with 10 mg/kg of Compound I, intraperitoneally. The animal was sacrificed on Day 10 and the ascites fluid harvested. The in vitro metabolic studies were performed at […] final concentration of Compound I.
In vitro and in vivo nuclear deoxyribonucleic acid polymerase activity was determined on isolated Ehrlich ascites cell nuclei. The incubation was that described by Sawada et al [Can. Res., 34, 3341 (1974)] except that [methyl-^3 H] deoxythymidine triphosphate (82.4 Ci/mmol) was used. The acid insoluble nucleic acid was collected on GF/F filters and counted. Nuclear ribonucleic acid polymerase activities were determined on enzymes isolated from nuclei. […] The acid insoluble ribonucleic acid was collected on nitrocellulose filters and counted.

## {Cu[(CH3)3 N.BH2 CO2 ]2.(CH3)3 N.BH2 COOH} [Compound I]
  IC50: 433 µM
